Test system: maximal (tonic hindlimb extension) electroshock seizures in male rats (Sprague Dawley)
Assay: Rat MEST (maximal electroshock seizure threshold) test
Format: in vivo
Details: 2 mg/kg p.o., suspension in methyl cellulose, one hour post dosing, statistically significant
Protocol: The maximal electroshock seizure (MEST) threshold test in rodents is particularly sensitive for detecting potential anticonvulsant properties ^1. In this model, anticonvulsant agents elevate the threshold to electrically-induced seizures whilst proconvulsants lower the seizure threshold.
The threshold for maximal (tonic hindlimb extension) electroshock seizures in male rats (Sprague Dawley, 80-150 g, 6 weeks old) was determined by a Hugo Sachs Electronik stimulator which delivered a constant current (0.3 sec duration; from 1-300mA in steps of 5-20mA). The procedure is similar to that outlined above for mouse and full details are as published by Upton et al.^4
The percentage increase or decrease in CC50 for each group compared to the control is calculated.
Drugs are suspended in 1% methyl cellulose.

Row | SMILES | increase in seizure threshold
1 | COc1cc(C(C)C)c(C#N)cc1C(=O)Nc1cccc2c1CCN(C)C2.Cl [Example 10, N-(2-Methyl-1,2,3,4-tetrahydroisoquinolin-5-yl)-5-cyano-2-methoxy-4-iso-propylbenzamide, hydrochloride] | 152%
2 | CCOc1cc(C(C)C)c(C(F)(F)F)cc1C(=O)Nc1cccc2c1CCN(C)C2 [Example 11, N-(2-Methyl-1,2,3,4-tetrahydroisoquinolin-5-yl)-2-ethoxy-4-iso-propyl-5-trifluoromethylbenzamide] | 92%
3 | CCOc1cc(C(C)C)c(C#N)cc1C(=O)Nc1cccc2c1CCN(C)C2.Cl [Example 16, N-(2-Methyl-1,2,3,4-tetrahydroisoquinolin-5-yl)-5-cyano-2-ethoxy-4-iso-propylbenzamide, hydrochloride] | 336%
4 | CCOc1cc(OC)c(C(=O)Nc2cccc3c2CCN(C)C3)cc1Br [Example 17, N-(2-Methyl-1,2,3,4-tetrahydroisoquinolin-5-yl)-5-bromo-4-ethoxy-2-methoxybenzamide] | 403%
5 | COc1cc(OC)c(C(=O)Nc2cccc3c2CCN(C)C3)cc1C#N.Cl [Example 23, N-(2-Methyl-1,2,3,4-tetrahydroisoquinolin-5-yl)-2,4-dimethoxy-5-cyanobenzamide, hydrochloride] | 107%

From patent publication US20010025045A1, “Substituted isoquinoline derivatives and their use as anticonvulsants” (SmithKline Beecham p.l.c., priority 1997, published 2001)
